Reference: patent publication US12559529B2, “NPY2 receptor agonists” (Boehringer Ingelheim International GmbH, priority 2019, dated 2026)

Legend:
[1] = molecular target: T1, human NPY2 receptor (Homo sapiens, UniProt P49146); experiment: HTRF cAMP Gi assay, hY2R
T1 sequence (P49146 1-381): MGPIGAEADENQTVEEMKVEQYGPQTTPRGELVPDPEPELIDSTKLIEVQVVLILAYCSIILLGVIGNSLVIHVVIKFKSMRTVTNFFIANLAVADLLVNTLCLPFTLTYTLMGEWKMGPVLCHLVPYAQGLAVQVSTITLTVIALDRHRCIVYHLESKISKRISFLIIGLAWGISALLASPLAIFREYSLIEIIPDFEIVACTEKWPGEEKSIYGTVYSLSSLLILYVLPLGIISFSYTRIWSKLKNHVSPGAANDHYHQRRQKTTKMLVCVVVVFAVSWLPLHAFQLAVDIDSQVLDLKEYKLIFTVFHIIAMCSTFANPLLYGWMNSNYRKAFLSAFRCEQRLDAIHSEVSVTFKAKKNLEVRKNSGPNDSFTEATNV
Method: (§1) Briefly, the production of intracellular cAMP will generate a competition between unlabeled cAMP and exogenously added d2-cAMP for anti-cAMP antibodies conjugated to cryptate. CHO-K1 cells stably expressing the human NPY1, NPY2, NPY4 and NPY5 receptors were used with the cells brought to life from a frozen stock immediately before assay performance. 2000 cells per well were applied for all four NPY receptor subtype assays. A 384-well format was used applying a total volume of 20 μl using 5 μl cells, 2.5 μl peptide agonist, 2.5 μl forskolin and 5 μl of each of the fluorophores. […] Concentration-response evaluation of compounds was performed with 11 concentrations of agonist peptides (covering 3 decades). EC50 values were calculated by nonlinear regression using sigmoid concentration-response with variable slope.

[2] = molecular target: T2, Human Neuropeptide Y2 Receptor (Homo sapiens, UniProt P49146); experiment: Radioligand binding competition assay (RLB); conditions: Table 3; human 125I-PYY (1-36) 0.02 nM, Y2 receptor membranes; read-out: Ki
T2 construct: purchased CHEMICON HTS066M
T2 sequence (P49146 1-381): T1 sequence (P49146 1-381)
How it was run: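 Competition binding at commercial human NPY Y2 membrane preparations, 0.5 μg protein per well, 2 h incubation at room temperature. Bound and free ligand were separated on GF/C filters and counted; IC50 was fitted by nonlinear regression.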

[3] = molecular target: T3, human NPY1 receptor (Homo sapiens, UniProt P25929); experiment: HTRF cAMP Gi assay, hY1R; assay type: cell-based; conditions: Table 4; CHO-K1 cells
T3 construct: expressed in transfected cells; host or cells: CHO-K1
T3 sequence (P25929 1-384): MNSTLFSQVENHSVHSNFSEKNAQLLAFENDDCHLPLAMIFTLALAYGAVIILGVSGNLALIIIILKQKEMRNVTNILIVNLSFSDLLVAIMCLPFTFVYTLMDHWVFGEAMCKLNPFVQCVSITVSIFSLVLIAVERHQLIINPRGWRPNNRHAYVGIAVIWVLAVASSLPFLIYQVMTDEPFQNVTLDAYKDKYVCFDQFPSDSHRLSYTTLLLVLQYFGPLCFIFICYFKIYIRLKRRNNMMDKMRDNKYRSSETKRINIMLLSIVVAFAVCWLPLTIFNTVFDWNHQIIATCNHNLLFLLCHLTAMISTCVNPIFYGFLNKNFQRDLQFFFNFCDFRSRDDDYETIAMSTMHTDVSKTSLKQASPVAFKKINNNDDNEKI
Method: as §1

[4] = molecular target: T4, human NPY5 receptor (Homo sapiens, UniProt Q15761); experiment: HTRF cAMP Gi assay, hY5R
T4 sequence (Q15761 1-445): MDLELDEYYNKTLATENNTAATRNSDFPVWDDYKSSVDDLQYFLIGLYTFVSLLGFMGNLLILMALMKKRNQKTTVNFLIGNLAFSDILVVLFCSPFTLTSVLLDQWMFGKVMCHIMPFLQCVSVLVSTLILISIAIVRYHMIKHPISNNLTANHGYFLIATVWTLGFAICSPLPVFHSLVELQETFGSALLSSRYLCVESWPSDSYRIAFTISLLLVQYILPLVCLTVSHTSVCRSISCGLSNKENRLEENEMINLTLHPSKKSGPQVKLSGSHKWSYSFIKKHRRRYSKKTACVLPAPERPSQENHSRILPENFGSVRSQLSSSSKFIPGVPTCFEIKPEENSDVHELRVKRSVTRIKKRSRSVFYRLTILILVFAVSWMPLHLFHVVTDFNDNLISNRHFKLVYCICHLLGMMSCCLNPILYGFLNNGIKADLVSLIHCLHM
From the text: (§2) The Homogenous Time Resolved fluorescence (HTRF) technology optimized for Gi coupled receptors has thoroughly been described in Cisbio cAMP Gi kit manual. Briefly, the production of intracellular cAMP will generate a competition between unlabeled cAMP and exogenously added d2-cAMP for anti-cAMP antibodies conjugated to cryptate. CHO-K1 cells stably expressing the human NPY1, NPY2, NPY4 and NPY5 receptors were used with the cells brought to life from a frozen stock immediately before assay performance. 2000 cells per well were applied for all four NPY receptor subtype assays. A 384-well format was used applying a total volume of 20 μl using 5 μl cells, 2.5 μl peptide agonist, 2.5 μl forskolin and 5 μl of each of the fluorophores. […] Concentration-response evaluation of compounds was performed with 11 concentrations of agonist peptides (covering 3 decades). EC50 values were calculated by nonlinear regression using sigmoid concentration-response with variable slope.

[5] = system: normal NMRI mice; experiment: Effect on acute food intake in normal NMRI mice; assay type: in vivo; conditions: male NMRI mice, 10 nmol/kg subcutaneously once
How it was run: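 Male NMRI mice acclimatized in an HM-2 real-time food intake monitoring system, fasted 6 h before dark phase. Single subcutaneous dose of 10 nmol/kg peptide given 1 h before dark; n=7-8. Food intake expressed as % of vehicle group (50 mM phosphate pH7, 5% Mannitol).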

[6] = molecular target: T5, human NPY4 receptor (Homo sapiens, UniProt P50391); experiment: HTRF cAMP Gi assay, hY4R; assay type: cell-based; conditions: Table 4; CHO-K1 cells
T5 construct: expressed in transfected cells; host or cells: CHO-K1
T5 sequence (P50391 whole entry): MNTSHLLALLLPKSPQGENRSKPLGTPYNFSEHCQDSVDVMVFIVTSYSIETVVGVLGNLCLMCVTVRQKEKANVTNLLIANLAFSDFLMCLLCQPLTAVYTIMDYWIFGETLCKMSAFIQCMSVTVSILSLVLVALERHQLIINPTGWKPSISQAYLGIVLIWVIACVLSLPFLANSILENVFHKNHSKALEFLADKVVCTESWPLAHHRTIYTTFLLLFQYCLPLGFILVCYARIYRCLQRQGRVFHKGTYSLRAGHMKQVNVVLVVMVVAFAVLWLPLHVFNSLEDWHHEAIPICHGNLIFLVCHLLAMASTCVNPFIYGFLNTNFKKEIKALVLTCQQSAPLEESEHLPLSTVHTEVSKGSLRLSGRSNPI
From the text: as §2

| Compound | EC50 [1] | Ki [2] | EC50 [3] | EC50 [4] | Acute Food Intake 24 h [% vehicle] [5] | EC50 [6] |
| --- | --- | --- | --- | --- | --- | --- |
| CC(C)CC(=O)N[C@@H](C)C(=O)N1CCC[C@H]1C(=O)N[C@@H](CCC(=O)O)C(=O)N[C@@H](CCCCNC(=O)COCCOCCNC(=O)COCCOCCNC(=O)CC[C@H](NC(=O)CCCCCCCCCCCCCCCCC(=O)O)C(=O)O)C(=O)N1CCC[C@H]1C(=O)N[C@@H](CCC(=O)O)C(=O)N[C@@H](CCC(=O)O)C(=O)N[C@@H](CC(=O)O)C(=O)N[C@@H](C)C(=O)N[C@@H](CCC(=O)O)C(=O)N1CCC[C@H]1C(=O)N[C@@H](CCC(=O)O)C(=O)N[C@@H](CCC(=O)O)C(=O)N[C@@H](CC(C)C)C(=O)N[C@@H](CCC(N)=O)C(=O)N[C@@H](CCC(N)=O)C(=O)N[C@@H](Cc1ccc(O)cc1)C(=O)N[C@@H](Cc1ccc(O)cc1)C(=O)N[C@H](C(=O)N[C@@H](CO)C(=O)N[C@@H](CC(C)C)C(=O)N[C@@H](CCCNC(=N)N)C(=O)N[C@@H](Cc1c[nH]cn1)C(=O)N[C@@H](Cc1ccc(O)cc1)C(=O)N[C@@H](Cc1ccc(O)cc1)C(=O)N[C@@H](CC(N)=O)C(=O)N[C@@H](Cc1c[nH]c2ccccc12)C(=O)N[C@@H](CC(C)C)C(=O)N[C@H](C(=O)N[C@@H](CCCNC(=N)N)C(=O)N[C@@H](CCC(N)=O)C(=O)N[C@@H](CCCNC(=N)N)C(=O)N[C@@H](Cc1ccc(O)cc1)C(N)=O)[C@@H](C)O)C(C)C [Compound 18, N{alpha-4}-(3-methylbutanoyl)-N{epsilon-7}-[2-(2-{2-[2-(2-{2-[(4S)-4-carboxy-4-(17-carboxyheptadecanamido)butanamido]ethoxy}ethoxy)acetamido]ethoxy}ethoxy)acetamido]-[4A,7K,9E,13E,18Q,19Q,22V,28Y,30W,31L]hPYY (4-36)] | 0.167 nM | 3.71 nM | > 5000 nM | > 5000 nM | 58 % vehicle | > 5000 nM |
| CC(C)CC(=O)N[C@@H](C)C(=O)N1CCC[C@H]1C(=O)N[C@@H](CCC(=O)O)C(=O)N[C@@H](CCCCNC(=O)COCCOCCNC(=O)COCCOCCNC(=O)CC[C@H](NC(=O)CCCCCCCCCCCCCCCCC(=O)O)C(=O)O)C(=O)N1CCC[C@H]1C(=O)N[C@@H](CCC(=O)O)C(=O)N[C@@H](CCC(=O)O)C(=O)N[C@@H](CCC(=O)O)C(=O)N[C@@H](C)C(=O)N[C@H](C(=O)N1CCC[C@H]1C(=O)N[C@@H](CCC(=O)O)C(=O)N[C@@H](CCC(=O)O)C(=O)N[C@@H](CC(C)C)C(=O)N[C@@H](CCC(N)=O)C(=O)N[C@@H](CCCNC(=N)N)C(=O)N[C@@H](Cc1ccc(O)cc1)C(=O)N[C@@H](Cc1ccc(O)cc1)C(=O)N[C@H](C(=O)N[C@@H](CO)C(=O)N[C@@H](CC(C)C)C(=O)N[C@@H](CCCNC(=N)N)C(=O)N[C@@H](Cc1c[nH]cn1)C(=O)N[C@@H](Cc1ccc(O)cc1)C(=O)N[C@@H](Cc1ccc(O)cc1)C(=O)N[C@@H](CC(N)=O)C(=O)N[C@@H](Cc1c[nH]c2ccccc12)C(=O)N[C@@H](CC(C)C)C(=O)N[C@H](C(=O)N[C@@H](CCCNC(=N)N)C(=O)N[C@@H](CCC(N)=O)C(=O)N[C@@H](CCCNC(=N)N)C(=O)N[C@@H](Cc1ccc(O)cc1)C(N)=O)[C@@H](C)O)C(C)C)[C@@H](C)O [Compound 41, N{alpha-4}-(3-methylbutanoyl)-N{epsilon-7}-[2-(2-{2-[2-(2-{2-[(4S)-4-carboxy-4-(17-carboxyheptadecanamido)butanamido]ethoxy}ethoxy)acetamido]ethoxy}ethoxy)acetamido]-[4A,7K,9E,11E,13T,18Q,22V,28Y,30W,31L]hPYY (4-36)] | 0.159 nM | 3.22 nM | > 5000 nM | > 5000 nM | 44 % vehicle | > 5000 nM |
| CC(C)CC(=O)N[C@@H](C)C(=O)N1CCC[C@H]1C(=O)N[C@@H](CCC(=O)O)C(=O)N[C@@H](CCCCNC(=O)COCCOCCNC(=O)COCCOCCNC(=O)CC[C@H](NC(=O)CCCCCCCCCCCCCCCCC(=O)O)C(=O)O)C(=O)N1CCC[C@H]1C(=O)N[C@@H](CCC(=O)O)C(=O)N[C@@H](CCC(=O)O)C(=O)N[C@@H](CCC(=O)O)C(=O)N[C@@H](C)C(=O)N[C@@H](CO)C(=O)N1CCC[C@H]1C(=O)N[C@@H](CCC(=O)O)C(=O)N[C@@H](CCC(=O)O)C(=O)N[C@@H](CC(C)C)C(=O)N[C@@H](CCC(N)=O)C(=O)N[C@@H](CCCNC(=N)N)C(=O)N[C@@H](Cc1ccc(O)cc1)C(=O)N[C@@H](Cc1ccc(O)cc1)C(=O)N[C@H](C(=O)N[C@@H](CO)C(=O)N[C@@H](CC(C)C)C(=O)N[C@@H](CCCNC(=N)N)C(=O)N[C@@H](Cc1c[nH]cn1)C(=O)N[C@@H](Cc1ccc(O)cc1)C(=O)N[C@@H](Cc1ccc(O)cc1)C(=O)N[C@@H](CC(N)=O)C(=O)N[C@@H](Cc1c[nH]c2ccccc12)C(=O)N[C@@H](CC(C)C)C(=O)N[C@H](C(=O)N[C@@H](CCCNC(=N)N)C(=O)N[C@@H](CCC(N)=O)C(=O)N[C@@H](CCCNC(=N)N)C(=O)N[C@@H](Cc1ccc(O)cc1)C(N)=O)[C@@H](C)O)C(C)C [Compound 46, N{alpha-4}-(3-methylbutanoyl)-N{epsilon-7}-[2-(2-{2-[2-(2-{2-[(4S)-4-carboxy-4-(17-carboxyheptadecanamido)butanamido]ethoxy}ethoxy)acetamido]ethoxy}ethoxy)acetamido]-[4A,7K,9E,11E,18Q,22V,28Y,30W,31L]hPYY (4-36)] | 0.152 nM | 3.3 nM | > 5000 nM | > 5000 nM | 39 % vehicle | > 5000 nM |
| CC(C)CC(=O)N[C@@H](C)C(=O)N1CCC[C@H]1C(=O)N[C@@H](CCC(=O)O)C(=O)N[C@@H](CCCCNC(=O)COCCOCCNC(=O)COCCOCCNC(=O)CC[C@H](NC(=O)CCCCCCCCCCCCCCCCC(=O)O)C(=O)O)C(=O)N1CCC[C@H]1C(=O)N[C@@H](CCC(=O)O)C(=O)N[C@@H](CCC(=O)O)C(=O)N[C@@H](CC(=O)O)C(=O)N[C@@H](C)C(=O)N[C@@H](CO)C(=O)N1CCC[C@H]1C(=O)N[C@@H](CCC(=O)O)C(=O)N[C@@H](CCC(=O)O)C(=O)N[C@@H](CC(C)C)C(=O)N[C@@H](CCC(N)=O)C(=O)N[C@@H](CCCNC(=N)N)C(=O)N[C@@H](Cc1ccc(O)cc1)C(=O)N[C@@H](Cc1ccc(O)cc1)C(=O)N[C@H](C(=O)N[C@@H](CO)C(=O)N[C@@H](CC(C)C)C(=O)N[C@@H](CCCNC(=N)N)C(=O)N[C@@H](Cc1c[nH]cn1)C(=O)N[C@@H](Cc1ccc(O)cc1)C(=O)N[C@@H](Cc1ccc(O)cc1)C(=O)N[C@@H](CC(N)=O)C(=O)N[C@@H](Cc1c[nH]c2ccccc12)C(=O)N[C@@H](CC(C)C)C(=O)N[C@H](C(=O)N[C@@H](CCCNC(=N)N)C(=O)N[C@@H](CCC(N)=O)C(=O)N[C@@H](CCCNC(=N)N)C(=O)N[C@@H](Cc1ccc(O)cc1)C(N)=O)[C@@H](C)O)C(C)C [Compound 54, N{alpha-4}-(3-methylbutanoyl)-N{epsilon-7}-[2-(2-{2-[2-(2-{2-[(4S)-4-carboxy-4-(17-carboxyheptadecanamido)butanamido]ethoxy}ethoxy)acetamido]ethoxy}ethoxy)acetamido]-[4A,7K,9E,18Q,22V,28Y,30W,31L]hPYY (4-36)] | 0.131 nM | 0.95 nM | > 5000 nM | > 5000 nM | 42 % vehicle | > 5000 nM |
